In patent publication US9518052B2, “Pyrazolopyridines and pyrazolopyrimidines” (Pfizer Inc., priority 2014, dated 2016):

Experiments:
[1] = test system: rhIFNγ stimulated STAT-3 phosphorylation in the A549 human epithelial cell line; assay: A549 Cell Assay: Inhibition of pSTAT3; assay type: cell-based; details: A549 cells
Method: A549 Cell Assay: Inhibition of pSTAT3
An assay measuring the efficacy of JAK inhibitors on the functional response of recombinant human interferon γ (rhIFNγ) stimulated STAT-3 phosphorylation in the A549 human epithelial cell line.
A549 cells (ATCC #CCL-185), were plated at 30,000 cells/well in 96 well flat bottomed tissue culture plates (BD#353072) in 200 μL of growth medium (DMEM, Pfizer media prep, with 10% Fetal Bovine Serum, Sigma #F4135, 2 mM L-Glutamine, Pfizer media prep, 100 U/mL penicillin, Pfizer media prep, and 200 μg/ml streptomycin, Pfizer media prep), and cultured at 37° C., 5% CO2 incubator for 18 hours. Growth medium was removed by vacuum aspiration (V&P Scientific #vp187 bp-60), and 90 μL of pre-warmed assay medium (DMEM with 0.2% BSA, Miltenyi #130-091-376) was added to each well and incubated for 15 minutes at 37° C. 10 μL of vehicle control or test compound (final concentration range of 0.3 nM to 10 μM with 0.1% DMSO) was added to the cells. Plates were incubated at 37° C. for 1 hour. After compound incubation, 10 μL of 220 ng/mL recombinant human IFNγ (R&D Systems #285-IF, final rhIFNγ concentration of 20 ng/mL) was added to the cells and plates were incubated for 30 minutes at 37° C. Wells containing A549 cells, medium with 0.1% DMSO and no rhIFNγ were used as background controls. After rhIFNγ stimulation, media was aspirated from each well and 35 μL/well of iced-cold MSD lysis buffer containing protease and phosphatase inhibitors from Phospho-STAT3 Tyr705 assay kit (Meso-Scale Discovery #K150DID) was added to each well. Plates were incubated at 4° C. with shaking for 30 minutes. Cell lysates were assayed following the MSD Phospho-STAT3 Tyr705 assay kit protocol to detect pSTAT3.
Data were collected and transformed into percent inhibition and calculated using the following formula: […]

JAK1 = JAK1 (Homo sapiens (Human), UniProt P23458); assay: JAK Caliper Enzyme Assay at 1 mM ATP (JAK1); assay type: biochemical; details: Caliper assay at 1 mM ATP
JAK2 = JAK2 (Homo sapiens (Human), UniProt O60674); assay: JAK Caliper Enzyme Assay at 1 mM ATP (JAK2); assay type: biochemical; details: Caliper assay at 1 mM ATP
JAK3 = JAK3 (Homo sapiens (Human), UniProt P52333); assay: JAK Caliper Enzyme Assay at 1 mM ATP (JAK3); assay type: biochemical; details: Caliper assay at 1 mM ATP
TYK2 = TYK2 (Homo sapiens (Human), UniProt P29597); assay: JAK Caliper Enzyme Assay at 1 mM ATP (TYK2); assay type: biochemical; details: Caliper assay at 1 mM ATP
Chain of TYK2 (P29597 whole entry, species assumed): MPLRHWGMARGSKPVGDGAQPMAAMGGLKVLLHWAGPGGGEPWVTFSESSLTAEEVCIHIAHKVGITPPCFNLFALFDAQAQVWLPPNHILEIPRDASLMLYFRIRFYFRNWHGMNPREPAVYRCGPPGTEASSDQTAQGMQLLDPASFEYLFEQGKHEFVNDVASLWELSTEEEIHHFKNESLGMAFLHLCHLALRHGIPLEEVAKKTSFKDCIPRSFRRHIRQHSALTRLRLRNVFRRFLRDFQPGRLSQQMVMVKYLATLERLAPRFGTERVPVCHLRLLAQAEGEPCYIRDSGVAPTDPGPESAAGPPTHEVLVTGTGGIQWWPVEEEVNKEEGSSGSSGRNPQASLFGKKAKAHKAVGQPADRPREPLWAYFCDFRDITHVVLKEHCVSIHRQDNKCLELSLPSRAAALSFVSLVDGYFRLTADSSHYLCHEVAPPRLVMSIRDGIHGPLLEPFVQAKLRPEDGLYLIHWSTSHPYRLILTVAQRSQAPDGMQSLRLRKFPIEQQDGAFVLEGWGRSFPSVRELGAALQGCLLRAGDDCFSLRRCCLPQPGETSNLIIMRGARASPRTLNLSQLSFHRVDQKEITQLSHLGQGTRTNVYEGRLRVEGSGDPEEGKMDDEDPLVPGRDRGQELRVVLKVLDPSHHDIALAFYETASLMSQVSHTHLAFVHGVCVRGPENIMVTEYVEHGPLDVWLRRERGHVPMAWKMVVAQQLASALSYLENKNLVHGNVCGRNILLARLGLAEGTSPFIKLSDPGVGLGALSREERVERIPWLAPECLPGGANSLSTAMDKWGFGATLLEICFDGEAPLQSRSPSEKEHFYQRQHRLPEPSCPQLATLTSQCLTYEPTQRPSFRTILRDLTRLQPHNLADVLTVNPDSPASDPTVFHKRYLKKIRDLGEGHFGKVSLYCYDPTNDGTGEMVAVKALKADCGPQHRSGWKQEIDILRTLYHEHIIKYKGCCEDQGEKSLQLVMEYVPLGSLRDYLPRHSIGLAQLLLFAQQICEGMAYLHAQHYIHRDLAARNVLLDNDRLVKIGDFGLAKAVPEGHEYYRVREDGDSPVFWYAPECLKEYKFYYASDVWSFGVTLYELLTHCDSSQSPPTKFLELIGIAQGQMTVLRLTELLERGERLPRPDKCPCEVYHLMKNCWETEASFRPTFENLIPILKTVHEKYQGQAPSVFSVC

Chain of JAK1 (P23458 whole entry, species assumed): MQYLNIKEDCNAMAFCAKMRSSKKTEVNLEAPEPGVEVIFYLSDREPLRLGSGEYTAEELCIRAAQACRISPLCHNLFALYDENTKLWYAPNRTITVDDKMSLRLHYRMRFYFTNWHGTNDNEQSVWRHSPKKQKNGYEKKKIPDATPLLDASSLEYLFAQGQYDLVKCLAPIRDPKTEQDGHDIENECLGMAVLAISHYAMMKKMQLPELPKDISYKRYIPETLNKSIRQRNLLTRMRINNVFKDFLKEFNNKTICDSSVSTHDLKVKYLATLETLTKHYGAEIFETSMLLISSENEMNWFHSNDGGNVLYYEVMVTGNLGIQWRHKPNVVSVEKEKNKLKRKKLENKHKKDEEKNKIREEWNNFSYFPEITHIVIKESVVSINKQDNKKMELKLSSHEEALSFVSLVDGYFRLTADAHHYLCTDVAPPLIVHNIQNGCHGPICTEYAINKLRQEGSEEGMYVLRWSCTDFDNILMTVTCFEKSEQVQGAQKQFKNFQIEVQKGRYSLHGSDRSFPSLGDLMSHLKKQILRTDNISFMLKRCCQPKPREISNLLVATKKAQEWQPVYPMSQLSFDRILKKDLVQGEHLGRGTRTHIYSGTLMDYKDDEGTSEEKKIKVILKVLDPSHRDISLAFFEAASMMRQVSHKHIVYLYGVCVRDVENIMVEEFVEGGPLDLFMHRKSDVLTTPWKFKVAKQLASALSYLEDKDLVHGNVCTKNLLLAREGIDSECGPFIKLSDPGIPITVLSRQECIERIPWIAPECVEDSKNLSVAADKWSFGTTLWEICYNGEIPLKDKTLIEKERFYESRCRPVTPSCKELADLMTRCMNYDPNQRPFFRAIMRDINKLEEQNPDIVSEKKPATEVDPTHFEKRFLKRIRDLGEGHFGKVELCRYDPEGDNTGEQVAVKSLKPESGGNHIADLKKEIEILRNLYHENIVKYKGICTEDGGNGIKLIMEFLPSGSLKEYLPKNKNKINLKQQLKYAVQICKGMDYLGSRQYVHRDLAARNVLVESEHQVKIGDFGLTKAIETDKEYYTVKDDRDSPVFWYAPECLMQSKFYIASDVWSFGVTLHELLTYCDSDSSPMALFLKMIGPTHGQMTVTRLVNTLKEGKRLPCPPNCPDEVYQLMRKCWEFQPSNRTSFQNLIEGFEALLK
Chain of JAK3 (P52333 whole entry, species assumed): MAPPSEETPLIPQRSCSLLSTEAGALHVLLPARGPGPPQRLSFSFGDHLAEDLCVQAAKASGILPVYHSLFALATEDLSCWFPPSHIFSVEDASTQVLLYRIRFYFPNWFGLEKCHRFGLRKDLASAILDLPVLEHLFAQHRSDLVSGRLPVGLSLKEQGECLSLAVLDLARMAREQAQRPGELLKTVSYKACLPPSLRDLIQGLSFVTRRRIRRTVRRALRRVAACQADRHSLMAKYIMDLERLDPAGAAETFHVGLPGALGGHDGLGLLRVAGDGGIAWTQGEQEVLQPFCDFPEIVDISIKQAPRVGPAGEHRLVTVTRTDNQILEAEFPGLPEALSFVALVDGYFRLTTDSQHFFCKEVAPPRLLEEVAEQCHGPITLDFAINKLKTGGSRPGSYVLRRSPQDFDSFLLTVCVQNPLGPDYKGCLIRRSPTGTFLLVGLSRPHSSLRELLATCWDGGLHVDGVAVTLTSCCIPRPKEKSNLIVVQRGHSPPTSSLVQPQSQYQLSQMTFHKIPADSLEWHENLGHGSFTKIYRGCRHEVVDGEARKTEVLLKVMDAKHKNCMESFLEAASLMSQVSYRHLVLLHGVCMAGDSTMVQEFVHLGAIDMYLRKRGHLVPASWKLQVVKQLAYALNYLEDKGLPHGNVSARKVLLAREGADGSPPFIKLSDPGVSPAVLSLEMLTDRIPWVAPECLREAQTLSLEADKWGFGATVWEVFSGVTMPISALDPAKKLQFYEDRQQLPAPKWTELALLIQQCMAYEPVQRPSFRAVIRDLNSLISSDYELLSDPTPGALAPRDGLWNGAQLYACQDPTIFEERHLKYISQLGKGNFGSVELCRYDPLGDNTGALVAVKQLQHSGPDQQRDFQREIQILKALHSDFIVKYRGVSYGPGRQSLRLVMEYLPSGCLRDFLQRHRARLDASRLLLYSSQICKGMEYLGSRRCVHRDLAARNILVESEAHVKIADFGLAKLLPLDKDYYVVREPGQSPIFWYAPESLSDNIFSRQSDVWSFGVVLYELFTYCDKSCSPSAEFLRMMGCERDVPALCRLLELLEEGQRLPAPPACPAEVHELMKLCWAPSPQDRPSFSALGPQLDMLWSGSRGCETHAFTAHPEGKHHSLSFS
Chain of JAK2 (O60674 whole entry, species assumed): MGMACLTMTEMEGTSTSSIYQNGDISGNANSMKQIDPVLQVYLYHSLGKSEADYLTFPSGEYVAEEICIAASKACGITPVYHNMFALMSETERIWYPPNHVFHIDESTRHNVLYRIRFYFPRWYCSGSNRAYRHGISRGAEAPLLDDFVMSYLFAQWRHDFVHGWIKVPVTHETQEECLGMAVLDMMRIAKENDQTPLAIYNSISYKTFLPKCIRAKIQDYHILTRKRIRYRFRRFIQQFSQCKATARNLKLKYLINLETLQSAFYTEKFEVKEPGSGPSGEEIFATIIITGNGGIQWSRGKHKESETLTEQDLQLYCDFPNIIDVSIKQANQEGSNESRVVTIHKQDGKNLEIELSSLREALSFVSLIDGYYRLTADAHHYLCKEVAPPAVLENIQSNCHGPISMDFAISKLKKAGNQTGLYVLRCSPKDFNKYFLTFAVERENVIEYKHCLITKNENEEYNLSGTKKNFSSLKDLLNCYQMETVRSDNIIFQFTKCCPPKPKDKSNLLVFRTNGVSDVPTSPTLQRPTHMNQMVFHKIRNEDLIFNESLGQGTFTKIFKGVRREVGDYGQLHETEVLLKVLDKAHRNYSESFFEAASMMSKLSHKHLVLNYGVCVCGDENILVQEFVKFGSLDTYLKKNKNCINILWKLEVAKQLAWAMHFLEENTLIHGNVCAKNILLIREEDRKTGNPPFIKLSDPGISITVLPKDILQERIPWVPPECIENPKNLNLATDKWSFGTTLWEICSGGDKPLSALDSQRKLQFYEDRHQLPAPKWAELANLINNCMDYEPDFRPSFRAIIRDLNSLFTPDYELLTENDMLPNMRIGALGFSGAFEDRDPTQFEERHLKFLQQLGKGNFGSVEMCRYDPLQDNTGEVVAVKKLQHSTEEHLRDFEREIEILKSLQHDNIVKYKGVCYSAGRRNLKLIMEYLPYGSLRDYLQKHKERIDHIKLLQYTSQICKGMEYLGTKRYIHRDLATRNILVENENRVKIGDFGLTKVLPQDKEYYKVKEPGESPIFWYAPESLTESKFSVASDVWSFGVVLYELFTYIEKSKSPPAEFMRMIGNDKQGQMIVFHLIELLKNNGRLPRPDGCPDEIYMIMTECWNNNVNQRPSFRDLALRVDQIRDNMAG

IC50 (JAK1)	IC50 (JAK2)	IC50 (JAK3)	IC50 (TYK2)	SMILES	IC50 [1]
				CCc1cc(O)c(F)cc1-c1cc2[nH]nc(C(=O)NC)c2c(NCc2ccccc2N(CC)S(C)(=O)=O)n1 [Example 9, 6-(2-ethyl-5-fluoro-4-hydroxyphenyl)-4-({2-[ethyl(methylsulfonyl)ami-no]benzyl}amino)-N-methyl-1H-pyrazolo[4,3-c]pyridine-3-carboxamide]	14.9 nM
				CCc1cc(O)c(F)cc1-c1cc2[nH]nc(C(=O)NC)c2c(NCC2CCCC2)n1 [Example 10, 4-[(cyclopentylmethyl)ami-no]-6-(2-ethyl-5-fluoro-4-hydroxyphenyl)-N-methyl-1H-pyrazolo[4,3-c]pyridine-3-carboxamide]	26 nM
				CCN(c1ccccc1CNc1nc(-c2cc(F)c(O)cc2CC(F)(F)F)cc2[nH]nc(C(=O)NC)c12)S(C)(=O)=O [Example 12, 4-({2-[ethyl(methylsulfon-yl)amino]benzyl}ami-no)-6-[5-fluoro-4-hydroxy-2-(2,2,2-trifluoroethyl)phenyl]-N-methyl-1H-pyrazolo[4,3-c]pyridine-3-carboxamide]	44.9 nM
				CCS(=O)(=O)N(C)c1ccccc1CNc1nc(-c2cc(F)c(O)cc2CC(F)(F)F)cc2[nH]nc(C(=O)NC)c12 [Example 13]	96.7 nM
				CNC(=O)c1n[nH]c2cc(-c3cc(F)c(O)cc3CC(F)(F)F)nc(NCc3cc(F)ccc3N(C)S(C)(=O)=O)c12 [Example 14, 6-[5-fluoro-4-hydroxy-2-(2,2,2-trifluoroethyl)phenyl]-4-({5-fluoro-2-[methyl(methylsulfon-yl)amino]benzyl}ami-no)-N-methyl-1H-pyrazolo[4,3-c]pyridine-3-carboxamide]	20.7 nM
				CNC(=O)c1n[nH]c2cc(-c3cc(F)c(O)cc3CC(F)(F)F)nc(NCc3c(F)cccc3N(C)S(C)(=O)=O)c12 [Example 18, 6-[5-fluoro-4-hydroxy-2-(2,2,2-trifluoroethyl)phenyl]-4-({2-fluoro-6-[methyl(meth-ylsulfonyl)amino]benz-yl}amino)-N-methyl-1H-pyrazolo[4,3-c]pyridine-3-carboxamide]	97 nM
				CCc1cc(O)c(F)cc1-c1cc2[nH]nc(C(=O)NC)c2c(NCc2cc(C)ccc2N(C)S(C)(=O)=O)n1 [Example 21, 6-(2-ethyl-5-fluoro-4-hydroxyphenyl)-N-methyl-4-({5-methyl-2-[methyl(methylsulfon-yl)amino]benzyl}ami-no)-1H-pyrazolo[4,3-c]pyridine-3-carboxamide]	35.6 nM
				CCc1cc(O)c(F)cc1-c1cc2[nH]nc(C(=O)NC)c2c(NCc2ccccc2N(C)S(=O)(=O)c2ccccc2)n1 [Example 22, 6-(2-ethyl-5-fluoro-4-hydroxyphenyl)-N-methyl-4-({2-[methyl(phen-ylsulfonyl)amino]ben-zyl}amino)-1H-pyrazolo[4,3-c]pyridine-3-carboxamide]	52.8 nM
				CCc1cc(O)c(F)cc1-c1cc2[nH]nc(C(=O)NC)c2c(NCCc2ccc(NS(=O)(=O)c3ccccc3)cc2)n1 [Example 23, 6-(2-ethyl-5-fluoro-4-hydroxyphenyl)-N-methyl-4-[(2-{4-[(phenylsulfonyl)-amino]phenyl}ethyl)ami-no]-1H-pyrazolo[4,3-c]pyridine-3-carboxamide]	51.4 nM
				CNC(=O)c1n[nH]c2cc(-c3cc(F)c(O)cc3CC(F)(F)F)nc(NCc3ccccc3N(CCO)S(C)(=O)=O)c12 [Example 24, 6-[5-fluoro-4-hydroxy-2-(2,2,2-trifluoroethyl)phenyl]-4-({2-[(2-hydroxyethyl)-(methylsulfonyl)ami-no]benzyl}amino)-N-methyl-1H-pyrazolo[4,3-c]pyridine-3-carboxamide]	226 nM
				CN(c1ccccc1CNc1nc(-c2cc(F)c(O)cc2CC(F)(F)F)cc2[nH]nc(C(N)=O)c12)S(=O)(=O)c1ccccc1 [Example 26, 6-[5-fluoro-4-hydroxy-2-(2,2,2-trifluoroethyl)phenyl]-4-({2-[methyl(phen-ylsulfonyl)amino]ben-zyl}amino)-1H-pyrazolo[4,3-c]pyridine-3-carboxamide]	124 nM
				CS(=O)(=O)N(CCO)c1ccccc1CNc1nc(-c2cc(F)c(O)cc2CC(F)(F)F)cc2[nH]nc(C(N)=O)c12 [Example 27, 6-[5-fluoro-4-hydroxy-2-(2,2,2-trifluoroethyl)phenyl]-4-({2-[(2-hydroxyethyl)(methylsul-fonyl)amino]benzyl}amino)-1H-pyrazolo[4,3-c]pyridine-3-carboxamide]	874 nM
				CNC(=O)c1n[nH]c2cc(-c3cc(F)c(O)cc3CC(F)(F)F)nc(NCc3ccc(O)cc3N(C)S(C)(=O)=O)c12 [Example 33, 6-[5-fluoro-4-hydroxy-2-(2,2,2-trifluoroethyl)phenyl]-4-({4-hydroxy-2-[methyl(methylsulfon-yl)amino]benzyl}amino)-N-methyl-1H-pyrazolo[4,3-c]pyridine-3-carboxamide]	490 nM
				CNC(=O)c1n[nH]c2cc(-c3cc(F)c(O)cc3CC(F)(F)F)nc(NCc3cc(O)ccc3N(C)S(=O)(=O)c3ccccc3)c12 [Example 35, 6-[5-fluoro-4-hydroxy-2-(2,2,2-trifluoroethyl)phenyl]-4-({5-hydroxy-2-[methyl(phenylsulfon-yl)amino]benzyl}amino)-N-methyl-1H-pyrazolo[4,3-c]pyridine-3-carboxamide]	437 nM
74 nM	241 nM	207 nM	7460 nM	CC(C)CNc1nc(-c2cc(F)c(O)cc2CC(F)(F)F)nc2[nH]ncc12 [Example 153, 2-fluoro-4-{4-[(2-methyl-propyl)amino]-1H-pyrazolo[3,4-d]pyrimidin-6-yl}-5-(2,2,2-trifluoroethyl)phenol]	
3.4 nM	15 nM	76.5 nM	11.7 nM	CCc1cc(O)c(F)cc1-c1cc2[nH]nc(-c3ncc[nH]3)c2c(NCc2ccccc2N(C)S(C)(=O)=O)n1 [Example 157, N-[2-({[6-(2-Ethyl-5-fluoro-4-hydroxyphenyl)-3-(1H-imidazol-2-yl)-1H-pyrazolo[4,3-c]pyridin-4-yl]amino}methyl)phenyl]-N-methylmethanesulfonamide]	
4.3 nM	18.5 nM	83.3 nM	16.1 nM	CCc1cc(O)c(F)cc1-c1cc2[nH]nc(-c3nc(C)c[nH]3)c2c(NCc2ccccc2N(C)S(C)(=O)=O)n1 [Example 159, N-[2-({[6-(2-Ethyl-5-fluoro-4-hydroxyphenyl)-3-(4-methyl-1H-imidazol-2-yl)-1H-pyrazolo[4,3-c]pyridin-4-yl]amino}methyl)phenyl]-N-methylmethanesulfonamide]	
4.1 nM	23.6 nM	90.6 nM	15.4 nM	CCc1cc(O)c(F)cc1-c1cc2[nH]nc(-n3cccn3)c2c(NCc2ccccc2N(C)S(C)(=O)=O)n1 [Example 162, N-[2-({[6-(2-Ethyl-5-fluoro-4-hydroxyphenyl)-3-(1H-pyrazol-1-yl)-1H-pyrazolo[4,3-c]pyridin-4-yl]amino}methyl)phenyl]-N-methylmethanesulfonamide]	
32.9 nM	150 nM	491 nM	356 nM	CN(c1ccccc1CNc1nc(-c2cc(F)c(O)cc2CC(F)(F)F)cc2[nH]nc(-n3cccn3)c12)S(C)(=O)=O [Example 163, N-{2-[({6-[5-Fluoro-4-hydroxy-2-(2,2,2-trifluoroethyl)phenyl]-3-(1H-pyrazol-1-yl)-1H-pyrazolo[4,3-c]pyridin-4-yl}amino)methyl]phenyl}-N-methylmethanesulfonamide]	
3.5 nM	16.9 nM	78 nM	14.6 nM	CCc1cc(O)c(F)cc1-c1cc2[nH]nc(-c3nnc(C)[nH]3)c2c(NCc2ccccc2N(C)S(C)(=O)=O)n1 [Example 165, N-[2-({[6-(2-Ethyl-5-fluoro-4-hydroxyphenyl)-3-(5-methyl-4H-1,2,4-triazol-3-yl)-1H-pyrazolo[4,3-c]pyridin-4-yl]amino}methyl)phenyl]-N-methylmethanesulfonamide]	
9.3 nM	50.3 nM	134 nM	180 nM	CC(CO)CNc1nc(-c2cc(F)c(O)cc2CC(F)(F)F)nc2[nH]nc(-c3nc4c([nH]3)CCN(Cc3ccccc3)C4)c12 (stereo not drawn) [Example 173, 4-(3-(5-Benzyl-4,5,6,7-tetrahydro-1H-imidazo[4,5-c]pyridin-2-yl)-4-((3-hydroxy-2-methylpropyl)amino)-1H-pyrazolo[3,4-d]pyrimidin-6-yl)-2-fluoro-5-(2,2,2-trifluoroethyl)phenol]	
